Legend:
[1] = tested on: Hepatocyte growth factor receptor (Homo sapiens), P08581 [Y1235D]; test: Inhibition of human partial length MET Y1235D mutant (D1010 to S1367 residues) expressed in bacterial expression system at 1 uM by Kinomescan method relative to control
[2] = biological target: Vascular endothelial growth factor receptor 1 (Homo sapiens) (UniProt P17948); test: Inhibition of wild-type human partial length FLT1 (R781 to F1239 residues) expressed in bacterial expression system at 1 uM by Kinomescan method relative to control
[3] = biological target: Serine/threonine-protein kinase PLK4 (Homo sapiens) (UniProt O00444); test: Inhibition of wild-type human partial length PLK4 (M1 to S273 residues) expressed in mammalian expression system at 1 uM by Kinomescan method relative to control
[4] = biological target: Dual specificity mitogen-activated protein kinase kinase 5 (Homo sapiens) (UniProt Q13163); test: Inhibition of wild-type human partial length MEK5 (L98 to P448 residues) expressed in mammalian expression system at 1 uM by Kinomescan method relative to control
Chain of Dual specificity mitogen-activated protein kinase kinase 5 (Homo sapiens) (Q13163 whole entry, the tested form may be a part): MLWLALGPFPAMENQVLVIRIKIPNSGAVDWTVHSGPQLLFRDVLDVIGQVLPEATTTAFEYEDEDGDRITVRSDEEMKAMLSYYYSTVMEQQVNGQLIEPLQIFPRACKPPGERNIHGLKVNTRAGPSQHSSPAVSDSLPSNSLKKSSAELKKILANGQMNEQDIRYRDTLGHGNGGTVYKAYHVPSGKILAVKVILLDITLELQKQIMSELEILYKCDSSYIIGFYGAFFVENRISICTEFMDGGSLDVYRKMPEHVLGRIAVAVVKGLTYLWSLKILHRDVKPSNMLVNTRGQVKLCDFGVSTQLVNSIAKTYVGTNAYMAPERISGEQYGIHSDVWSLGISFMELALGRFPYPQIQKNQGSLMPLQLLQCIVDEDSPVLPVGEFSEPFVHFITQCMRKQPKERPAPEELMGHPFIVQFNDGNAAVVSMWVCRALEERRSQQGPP

[5] = biological target: Ephrin type-A receptor 5 (Homo sapiens) (UniProt P54756); test: Inhibition of wild-type human partial length EPHA5 (T627 to V930 residues) expressed in bacterial expression system at 1 uM by Kinomescan method relative to control
[6] = biological target: Leukocyte tyrosine kinase receptor (Homo sapiens) (UniProt P29376); test: Inhibition of wild-type human partial length LTK (P422 to S744 residues) expressed in bacterial expression system at 1 uM by Kinomescan method relative to control
[7] = biological target: Tyrosine-protein kinase ABL1 (Homo sapiens) (UniProt P00519); test: Inhibition of wild-type human non-phosphorylated ABL1 (S229 to K512 residues) expressed in mammalian expression system at 1 uM by Kinomescan method relative to control
[8] = biological target: Maternal embryonic leucine zipper kinase (Homo sapiens) (UniProt Q14680); test: Inhibition of wild-type human full length MELK (M1 to V651 residues) expressed in bacterial expression system at 1 uM by Kinomescan method relative to control
[9] = biological target: G protein-coupled receptor kinase 3 (Homo sapiens) (UniProt P35626); test: Inhibition of wild-type human full length GRK3 (M1 to L688 residues) expressed in mammalian expression system at 1 uM by Kinomescan method relative to control
Chain of G protein-coupled receptor kinase 3 (Homo sapiens) (P35626 whole entry, the tested form may be a part): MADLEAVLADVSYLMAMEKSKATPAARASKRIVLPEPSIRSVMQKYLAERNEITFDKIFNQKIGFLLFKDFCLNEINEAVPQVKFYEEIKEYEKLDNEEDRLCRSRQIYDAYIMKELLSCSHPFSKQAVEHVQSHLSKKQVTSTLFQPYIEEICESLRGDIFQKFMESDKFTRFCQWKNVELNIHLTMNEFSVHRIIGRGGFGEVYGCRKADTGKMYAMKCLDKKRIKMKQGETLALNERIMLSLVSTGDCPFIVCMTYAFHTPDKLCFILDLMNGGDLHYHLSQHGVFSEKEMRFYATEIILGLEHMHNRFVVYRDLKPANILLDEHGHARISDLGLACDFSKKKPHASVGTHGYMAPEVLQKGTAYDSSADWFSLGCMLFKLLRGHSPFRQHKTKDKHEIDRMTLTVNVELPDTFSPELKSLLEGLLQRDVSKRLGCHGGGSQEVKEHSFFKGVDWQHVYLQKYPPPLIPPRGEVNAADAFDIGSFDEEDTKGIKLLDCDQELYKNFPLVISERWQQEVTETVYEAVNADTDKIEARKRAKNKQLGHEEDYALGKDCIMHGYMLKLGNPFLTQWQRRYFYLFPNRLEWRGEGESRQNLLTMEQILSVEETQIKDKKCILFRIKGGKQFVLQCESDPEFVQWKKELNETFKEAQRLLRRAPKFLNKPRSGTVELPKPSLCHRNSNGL

[10] = tested on: Epidermal growth factor receptor (Homo sapiens), P00533 [L861Q]; test: Inhibition of human partial length EGFR L861Q mutant (R669 to V1011 residues) expressed in bacterial expression system at 1 uM by Kinomescan method relative to control
Chain of Epidermal growth factor receptor (Homo sapiens), P00533 [L861Q] (P00533 whole entry L861Q, the tested form may be a part): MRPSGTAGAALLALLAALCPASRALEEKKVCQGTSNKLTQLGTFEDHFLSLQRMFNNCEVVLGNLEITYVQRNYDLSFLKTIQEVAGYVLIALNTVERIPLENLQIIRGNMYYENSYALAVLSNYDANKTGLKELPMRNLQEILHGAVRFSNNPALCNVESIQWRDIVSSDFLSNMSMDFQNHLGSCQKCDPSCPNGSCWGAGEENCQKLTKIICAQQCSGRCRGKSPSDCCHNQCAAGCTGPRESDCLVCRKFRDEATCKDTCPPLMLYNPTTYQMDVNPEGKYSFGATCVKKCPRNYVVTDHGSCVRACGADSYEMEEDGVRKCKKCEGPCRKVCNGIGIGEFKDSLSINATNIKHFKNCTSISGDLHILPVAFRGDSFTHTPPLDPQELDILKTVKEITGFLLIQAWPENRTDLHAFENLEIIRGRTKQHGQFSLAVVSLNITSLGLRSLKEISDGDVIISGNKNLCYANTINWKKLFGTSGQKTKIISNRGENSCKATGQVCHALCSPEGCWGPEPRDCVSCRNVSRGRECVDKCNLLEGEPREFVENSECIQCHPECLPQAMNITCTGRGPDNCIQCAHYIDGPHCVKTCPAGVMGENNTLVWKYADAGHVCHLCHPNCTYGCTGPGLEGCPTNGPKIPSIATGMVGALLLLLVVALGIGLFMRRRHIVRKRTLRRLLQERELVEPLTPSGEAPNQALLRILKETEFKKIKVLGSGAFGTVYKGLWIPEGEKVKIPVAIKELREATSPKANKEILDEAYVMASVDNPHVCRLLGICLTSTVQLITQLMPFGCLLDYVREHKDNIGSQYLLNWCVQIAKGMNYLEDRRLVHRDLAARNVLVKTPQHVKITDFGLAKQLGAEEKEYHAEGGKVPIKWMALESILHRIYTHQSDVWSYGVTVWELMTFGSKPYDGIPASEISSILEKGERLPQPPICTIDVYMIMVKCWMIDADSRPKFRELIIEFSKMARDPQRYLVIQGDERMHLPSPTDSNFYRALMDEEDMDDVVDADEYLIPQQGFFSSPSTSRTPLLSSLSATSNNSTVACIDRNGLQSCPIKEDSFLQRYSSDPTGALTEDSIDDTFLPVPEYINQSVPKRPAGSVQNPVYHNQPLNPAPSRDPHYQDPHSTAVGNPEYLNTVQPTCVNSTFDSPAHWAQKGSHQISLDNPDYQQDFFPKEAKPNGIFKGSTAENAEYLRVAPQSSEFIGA

[11] = biological target: Serine/threonine-protein kinase RIO3 (Homo sapiens) (UniProt O14730); test: Inhibition of wild-type human full length RIOK3 (M1 to E519 residues) expressed in bacterial expression system at 1 uM by Kinomescan method relative to control
[12] = biological target: cGMP-dependent protein kinase 2 (Homo sapiens) (UniProt Q13237); test: Inhibition of wild-type human partial length PRKG2 (S422 to F762 residues) expressed in mammalian expression system at 1 uM by Kinomescan method relative to control
[13] = biological target: Interleukin-1 receptor-associated kinase 1 (Homo sapiens) (UniProt P51617); test: Inhibition of wild-type human partial length IRAK1 (R194 to S712 residues) expressed in mammalian expression system at 1 uM by Kinomescan method relative to control
[14] = biological target: Mitogen-activated protein kinase 1 (Homo sapiens) (UniProt P28482); test: Inhibition of wild-type human full length ERK2 (M1 to S360 residues) expressed in bacterial expression system at 10 uM by Kinomescan method relative to control
[15] = biological target: Ribosomal protein S6 kinase alpha-3 (Homo sapiens) (UniProt P51812); test: Inhibition of wild-type human partial length C-terminal RSK2 kinase domain 2 (V402 to S715 residues) expressed in mammalian expression system at 10 uM by Kinomescan method relative to control
Chain of Ribosomal protein S6 kinase alpha-3 (Homo sapiens) (P51812 whole entry, the tested form may be a part): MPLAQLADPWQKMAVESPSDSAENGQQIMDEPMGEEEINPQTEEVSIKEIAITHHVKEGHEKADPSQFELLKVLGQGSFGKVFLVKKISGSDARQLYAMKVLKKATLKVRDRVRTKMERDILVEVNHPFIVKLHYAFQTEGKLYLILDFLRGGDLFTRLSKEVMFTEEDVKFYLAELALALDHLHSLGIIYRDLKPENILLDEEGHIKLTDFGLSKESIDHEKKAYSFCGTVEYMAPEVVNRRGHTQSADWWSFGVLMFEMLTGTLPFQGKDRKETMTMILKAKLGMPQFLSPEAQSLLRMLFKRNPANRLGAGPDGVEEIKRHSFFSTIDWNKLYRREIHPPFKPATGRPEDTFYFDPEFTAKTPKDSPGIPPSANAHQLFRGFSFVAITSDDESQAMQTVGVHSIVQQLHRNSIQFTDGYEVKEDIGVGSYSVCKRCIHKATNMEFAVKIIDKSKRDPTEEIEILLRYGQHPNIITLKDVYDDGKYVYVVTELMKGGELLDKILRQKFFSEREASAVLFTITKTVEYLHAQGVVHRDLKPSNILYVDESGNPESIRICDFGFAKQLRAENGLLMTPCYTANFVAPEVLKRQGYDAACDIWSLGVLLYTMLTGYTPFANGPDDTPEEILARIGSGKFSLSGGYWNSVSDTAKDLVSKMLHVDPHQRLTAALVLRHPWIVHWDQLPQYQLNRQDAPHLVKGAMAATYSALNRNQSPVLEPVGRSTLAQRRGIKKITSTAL

[16] = tested on: Tyrosine-protein kinase ABL1 (Homo sapiens), P00519 [F317L]; test: Inhibition of human phosphorylated ABL1 F317L mutant (S229 to K512 residues) expressed in mammalian expression system at 10 uM by Kinomescan method relative to control
[17] = biological target: Interleukin-1 receptor-associated kinase 4 (Homo sapiens) (UniProt Q9NWZ3); test: Inhibition of wild-type human partial length IRAK4 (M1 to S460 residues) expressed in mammalian expression system at 10 uM by Kinomescan method relative to control
[18] = biological target: SRSF protein kinase 3 (Homo sapiens) (UniProt Q9UPE1); test: Inhibition of wild-type human partial length SRPK3 (P41 to P567 residues) expressed in bacterial expression system at 10 uM by Kinomescan method relative to control
[19] = biological target: Serine/threonine-protein kinase Nek7 (Homo sapiens) (UniProt Q8TDX7); test: Inhibition of wild-type human full length NEK7 (M1 to S302 residues) expressed in bacterial expression system at 10 uM by Kinomescan method relative to control
[20] = biological target: Dual specificity mitogen-activated protein kinase kinase 7 (Homo sapiens) (UniProt O14733); test: Inhibition of wild-type human full length MKK7 (M1 to R419 residues) expressed in mammalian expression system at 10 uM by Kinomescan method relative to control
[21] = biological target: Serine/threonine-protein kinase PAK 5 (Homo sapiens) (UniProt Q9P286); test: Inhibition of wild-type human partial length PAK7 (Y400 to H719 residues) expressed in bacterial expression system at 10 uM by Kinomescan method relative to control
[22] = biological target: Serine/threonine-protein kinase NLK (Homo sapiens) (UniProt Q9UBE8); test: Inhibition of wild-type human full length NLK (M13 to E527 residues) expressed in bacterial expression system at 10 uM by Kinomescan method relative to control
[23] = biological target: Dual specificity protein kinase CLK4 (Homo sapiens) (UniProt Q9HAZ1); test: Inhibition of wild-type human partial length CLK4 (R135 to K481 residues) expressed in bacterial expression system at 10 uM by Kinomescan method relative to control
Chain of Dual specificity protein kinase CLK4 (Homo sapiens) (Q9HAZ1 whole entry, looked up, the tested form may be a part): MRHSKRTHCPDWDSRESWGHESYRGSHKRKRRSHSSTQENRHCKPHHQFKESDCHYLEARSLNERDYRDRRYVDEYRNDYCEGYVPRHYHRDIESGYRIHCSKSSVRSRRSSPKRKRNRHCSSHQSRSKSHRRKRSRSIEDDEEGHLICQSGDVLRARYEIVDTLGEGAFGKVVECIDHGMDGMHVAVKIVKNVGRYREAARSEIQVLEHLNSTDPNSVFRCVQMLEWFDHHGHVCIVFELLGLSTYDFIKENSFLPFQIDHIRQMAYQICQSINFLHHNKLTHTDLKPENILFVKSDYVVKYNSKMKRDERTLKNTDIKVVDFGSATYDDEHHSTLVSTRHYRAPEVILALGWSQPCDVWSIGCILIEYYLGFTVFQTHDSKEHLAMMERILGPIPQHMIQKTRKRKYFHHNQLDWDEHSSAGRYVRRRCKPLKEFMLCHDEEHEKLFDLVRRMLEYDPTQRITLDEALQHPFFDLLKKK

[24] = biological target: Serine/threonine-protein kinase D3 (Homo sapiens) (UniProt O94806); test: Inhibition of wild-type human partial length PRKD3 (S543 to E863 residues) expressed in bacterial expression system at 10 uM by Kinomescan method relative to control
Chain of Serine/threonine-protein kinase D3 (Homo sapiens) (O94806 whole entry, the tested form may be a part): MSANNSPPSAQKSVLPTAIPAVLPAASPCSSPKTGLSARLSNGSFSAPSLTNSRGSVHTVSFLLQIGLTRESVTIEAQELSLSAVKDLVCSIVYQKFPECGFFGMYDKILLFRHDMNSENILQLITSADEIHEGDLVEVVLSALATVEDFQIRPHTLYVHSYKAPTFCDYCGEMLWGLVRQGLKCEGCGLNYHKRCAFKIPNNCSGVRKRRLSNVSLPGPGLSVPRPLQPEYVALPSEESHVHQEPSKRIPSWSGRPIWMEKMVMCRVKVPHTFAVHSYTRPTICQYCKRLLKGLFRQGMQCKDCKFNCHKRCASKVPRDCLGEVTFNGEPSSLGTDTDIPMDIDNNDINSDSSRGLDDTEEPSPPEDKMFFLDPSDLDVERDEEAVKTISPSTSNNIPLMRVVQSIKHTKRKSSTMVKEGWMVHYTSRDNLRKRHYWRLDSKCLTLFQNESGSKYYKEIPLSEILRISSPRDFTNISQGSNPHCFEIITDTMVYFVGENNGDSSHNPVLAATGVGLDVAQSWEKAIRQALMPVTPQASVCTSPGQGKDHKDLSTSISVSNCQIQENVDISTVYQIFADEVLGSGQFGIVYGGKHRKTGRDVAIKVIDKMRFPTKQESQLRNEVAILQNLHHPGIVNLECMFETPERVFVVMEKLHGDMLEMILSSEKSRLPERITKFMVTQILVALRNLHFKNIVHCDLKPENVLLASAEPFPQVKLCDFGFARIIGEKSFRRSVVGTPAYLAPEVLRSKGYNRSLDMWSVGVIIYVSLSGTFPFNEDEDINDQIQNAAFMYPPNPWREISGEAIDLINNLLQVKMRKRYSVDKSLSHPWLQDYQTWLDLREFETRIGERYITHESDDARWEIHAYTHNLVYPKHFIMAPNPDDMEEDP

[25] = biological target: Calcium/calmodulin-dependent protein kinase kinase 2 (Homo sapiens) (UniProt Q96RR4); test: Inhibition of wild-type human partial length CAMKK2 (D65 to V471 residues) expressed in bacterial expression system at 10 uM by Kinomescan method relative to control
[26] = biological target: Phosphatidylinositol 4,5-bisphosphate 3-kinase catalytic subunit beta isoform (Homo sapiens) (UniProt P42338); test: Inhibition of wild-type human partial length PIK3CB (P118 to S1070 residues) expressed in mammalian expression system at 10 uM by Kinomescan method relative to control
[27] = biological target: Aurora kinase A (Homo sapiens) (UniProt O14965); test: Inhibition of wild-type human partial length AURKA (E122 to K401 residues) expressed in mammalian expression system at 10 uM by Kinomescan method relative to control
Chain of Aurora kinase A (Homo sapiens) (O14965 whole entry, the tested form may be a part): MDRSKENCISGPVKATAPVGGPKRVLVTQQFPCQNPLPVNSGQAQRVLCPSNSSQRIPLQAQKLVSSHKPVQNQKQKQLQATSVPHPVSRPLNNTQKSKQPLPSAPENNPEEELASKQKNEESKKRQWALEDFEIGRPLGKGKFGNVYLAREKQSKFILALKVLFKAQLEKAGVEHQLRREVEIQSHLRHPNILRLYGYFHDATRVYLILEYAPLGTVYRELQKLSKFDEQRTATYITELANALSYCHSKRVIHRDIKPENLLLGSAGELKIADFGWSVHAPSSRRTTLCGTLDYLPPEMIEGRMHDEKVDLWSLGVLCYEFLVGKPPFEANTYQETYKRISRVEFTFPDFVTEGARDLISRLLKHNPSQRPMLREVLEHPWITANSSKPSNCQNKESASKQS

Compound `O=C(Nc1cccc([C@@H]2CN(c3ncnc4[nH]ccc34)CCN2CCO)c1)Nc1c(F)cccc1N1CCCC1` has an inhibition [1] of 67%, an inhibition [2] of 35% and an inhibition [3] of 6.3%. For the same compound, the inhibition [4] was 67%, the inhibition [5] was 92% and the inhibition [6] was 100%. For the same compound, the inhibition [7] was 61%, the inhibition [8] was 23% and the inhibition [9] was 93%. The inhibition [10] was 81%, the inhibition [11] was 26% and the inhibition [12] was 100%. It also gave an inhibition [13] of 92%.

Compound `O=C(Nc1cccc([C@H]2CCCN(c3ncnc4[nH]ccc34)C2)c1)Nc1ccccc1N1CCCC1` has an inhibition [14] of 100%, an inhibition [15] of 100% and an inhibition [16] of 87%. The inhibition [17] was 85%, the inhibition [18] was 9% and the inhibition [19] was 72%. For the same compound, the inhibition [20] was 68%, the inhibition [21] was 69% and the inhibition [22] was 96%. For the same compound, the inhibition [23] was 96%, the inhibition [24] was 100% and the inhibition [25] was 92%. The inhibition [26] was 94% and the inhibition [27] was 0.8%.

Reference: ChEMBL document CHEMBL4387741, “Optimization of novel reversible Bruton's tyrosine kinase inhibitors identified using Tethering-fragment-based screens” (Bioorg Med Chem, 2019)
